Tests used:
WT4R0N tau = type: cell-based, human; settings: HEK293T, transient WT4R0N tau, 24 h; for effect on tau levels (Hsp70 inhibitor scaffolds): increasing concentrations up to 30 µM; for effect on tau levels (tau aggregation inhibitor scaffolds): increasing concentrations
[1] = target: 4R0N human recombinant tau (Homo sapiens, UniProt P10636, P618L); assay: In vitro tau aggregation, thioflavin T fluorescence assay; type: biochemical; settings: for effect on tau aggregation levels in vitro: ThT fluorescence, heparin-induced, 24 h
human recombinant tau = human recombinant tau (Homo sapiens, UniProt P10636, P618L); assay: Nondenaturing gel electrophoresis of ThT samples, high molecular weight tau; type: biochemical; settings: ThT samples incubated with 30 µM compound
[2] = target: recombinant human P301L tau (Homo sapiens, UniProt P10636, P618L); assay: Hydrogen peroxide production assay; type: biochemical; settings: recombinant tau (10 µM) with 30 µM compound vs vehicle
[3] = target: Recombinant human Hsp70 and DnaJA2 (Homo sapiens, UniProt P0DMV8); assay: Hsp70 ATPase malachite green assay; type: biochemical; settings: 1 µM Hsp70, 1 µM DnaJA2, 1 mM ATP, 30 min preincubation, 3 h
HEK293T cells = assay: LDH cytotoxicity assay; type: cell-based, human; settings: increasing concentrations, 24 h, relative to DMSO

Sequence of 4R0N human recombinant tau (P10636 1-383 isoform P10636-6 P243L): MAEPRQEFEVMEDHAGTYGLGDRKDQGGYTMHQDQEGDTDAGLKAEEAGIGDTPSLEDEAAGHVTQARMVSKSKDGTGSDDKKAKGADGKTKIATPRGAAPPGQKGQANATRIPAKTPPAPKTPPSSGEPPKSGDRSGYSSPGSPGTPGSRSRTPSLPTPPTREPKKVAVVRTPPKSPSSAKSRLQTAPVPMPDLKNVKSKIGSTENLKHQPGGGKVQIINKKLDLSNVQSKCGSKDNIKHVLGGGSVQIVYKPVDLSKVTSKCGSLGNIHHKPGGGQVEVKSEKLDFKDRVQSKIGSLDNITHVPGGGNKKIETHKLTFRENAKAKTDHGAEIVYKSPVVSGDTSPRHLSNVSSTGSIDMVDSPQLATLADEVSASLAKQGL
Sequence of human recombinant tau (P10636 1-383 isoform P10636-6 P243L): as above
Sequence of recombinant human P301L tau (P10636 1-383 isoform P10636-6 P243L): as above
Sequence of Recombinant human Hsp70 and DnaJA2 (P0DMV8 whole entry): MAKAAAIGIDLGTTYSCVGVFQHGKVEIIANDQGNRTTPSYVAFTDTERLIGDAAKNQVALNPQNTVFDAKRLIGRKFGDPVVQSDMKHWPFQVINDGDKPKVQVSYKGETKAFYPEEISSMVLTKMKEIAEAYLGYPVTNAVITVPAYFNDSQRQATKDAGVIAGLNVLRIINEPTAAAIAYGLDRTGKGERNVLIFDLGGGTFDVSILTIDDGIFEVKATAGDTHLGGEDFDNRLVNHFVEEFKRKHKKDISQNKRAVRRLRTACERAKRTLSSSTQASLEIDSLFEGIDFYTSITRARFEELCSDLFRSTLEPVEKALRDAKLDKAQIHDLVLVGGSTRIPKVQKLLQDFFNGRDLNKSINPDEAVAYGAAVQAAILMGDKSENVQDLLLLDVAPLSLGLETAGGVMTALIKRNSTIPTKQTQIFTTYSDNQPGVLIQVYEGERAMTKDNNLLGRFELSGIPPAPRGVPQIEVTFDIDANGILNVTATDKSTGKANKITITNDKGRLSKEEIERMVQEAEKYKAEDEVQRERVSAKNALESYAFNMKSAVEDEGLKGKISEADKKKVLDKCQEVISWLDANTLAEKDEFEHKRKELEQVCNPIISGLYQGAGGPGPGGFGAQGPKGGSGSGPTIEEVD

## N#Cc1ccc(COC[C@H]2O[C@@H](n3c(NCc4ccc(Cl)c(Cl)c4)nc4c(N)ncnc43)[C@H](O)[C@@H]2O)cc1 [adenosine analog, 5'-O-[(4-Cyanophenyl)methyl]-8-[[(3,4-dichlorophenyl)methyl]amino]-adenosine]
WT4R0N tau
  effect on tau levels (Hsp70 inhibitor scaffolds): increased tau levels
[1]
  effect on tau aggregation levels in vitro: increased tau aggregation levels

## O=C1c2ccc(O)c(O)c2C(=O)c2c(O)ccc(O)c21 [anthraquinone, 1,2,5,8-Tetrahydroxy-9,10-anthraquinone, 1,2,5,8-Tetrahydroxyanthraquinone]
WT4R0N tau; 30 µM
  effect on tau levels at 30 µM: effectively lowered tau levels
WT4R0N tau
  effect on tau levels (tau aggregation inhibitor scaffolds): lowered tau levels

## CCn1c(=O)/c(=C2\Sc3cc(Cl)ccc3N2C)s/c1=C\c1scc[n+]1Cc1ccccc1.[Cl-] [rhodacyanine, 3-benzyl-2-((Z)-((E)-5-(6-chloro-3-methylbenzo[d]thiazol-2(3H)-ylidene)-3-ethyl-4-oxothiazolidin-2-ylidene)methyl)thiazol-3-ium chloride]
Human recombinant tau
  effect on high molecular weight tau: most potently reduced high molecular weight tau
[2]
  production of hydrogen peroxide: no significant differences
[1]
  IC50: 0.813 µM

## 2-((Z)-5-((5-(3- chlorophenyl)furan -2-yl)methylene)-4-oxo-2- thioxothiazolidin-3- yl)ethanoic acid [rhodanine]
[3]
  Hsp70 ATPase activity: inhibited Hsp70 ATPase activity

## 2-Phenylethynesulfonamide
HEK293T cells
  LDH cytotoxicity: high toxicity relative to the other compounds

## CN(C)c1ccc2nc3ccc(N(C)C)cc3[s+]c2c1.[Cl-] [phenothiazine, 3,7-bis(Dimethylamino)phenazat hionium chloride]
Human recombinant tau
  effect on high molecular weight tau: most potently reduced high molecular weight tau

## Nc1scc2c(C(=O)NC3CC3)nn(-c3ccc(Cl)cc3)c(=O)c12 [ATPZ, 5-amino-3-(4-chlorophenyl)-N-cyclopropyl-4-oxo-3,4-dihydrothieno[3,4-d]pyridazine-1-carboxamide]
WT4R0N tau
  effect on tau levels (tau aggregation inhibitor scaffolds): did not lead to tau lowering

## CC1=C(C(=O)OCc2ccccc2)C(c2ccc(-c3ccccc3)cc2)NC(=O)N1CCCCCC(=O)O (centres unmarked) [dihydropyrimidine, 4-[1,1'-Biphenyl]-4-yl-3,4-dihydro-6-methyl-2-oxo-5-[(phenylmethoxy)carbonyl]-1(2H)-pyrimidinehexanoic acid]
[1]
  IC50: 22.7 µM

## CCCn1c(NC(=O)[C@H]2CCCN(c3cnccn3)C2)nc2ccccc21 [piperidine-3-carboxamide, (S)-N-(1-propyl-1H-benzimidazol-2-yl)-1-(2-pyrazinyl)piperidine-3-carboxamide]
WT4R0N tau
  effect on tau levels (Hsp70 inhibitor scaffolds): increased tau levels
[1]
  effect on tau aggregation levels in vitro: increased tau aggregation levels

Source: PMC5111430 (ACS chemical biology, 2016)
